By solubility is commonly meant how much of the substance goes into solution per volume.

≈ marks a conversion by molar mass, not a printed value.

Data set [1] in a line: Solubility of fenretinide in simulated saliva. It is filed as physicochemical. The settings on record: pH 6.8. As for the experimental part:
The extent of solubility enhancement of fenretinide by numerous solubilizers (bile salts, surfactants, hydrophilic polymers, and co-solvents) was studied by determining the solubility in simulated saliva in the presence of 0.5, 1, 2, and 5% w/v solubilizers. Briefly, an excess amount of fenretinide was added into separate amber color ampoules containing 1-mL 0.5, 1, 2, and 5% w/v solutions of solubilizers (prepared using N2-purged simulated saliva) and sealed under vacuum in order remove the oxygen from the head-space. The ampoules were then placed in an incubator maintained at 37° C. and shaken at 240 RPM for 72 h (this duration was determined to be sufficient to reach the equilibrium). After 72 h, the ampoules were broken, mixture was passed through 0.45 μm PVDF filter units (Millipore, USA), diluted suitably with respective solubilizer solution, and the amount of fenretinide solubilized in simulated saliva was determined by HPLC.

The subject of data set [2] is cellular terminal differentiation and apoptosis. The note with it: cited from earlier work.
The nature of data set [3]: Fenretinide solubility in bovine serum. The note with it: for time required to achieve equilibrium with bovine serum: 37° C. In kind it is physicochemical. As to the method:
Excessive amount of fenretinide was added into fetal bovine serum in polypropylene tubes. The sample was placed on a mechanical circulator and incubated at 37 C avoiding light. At every 24 hours (until fenretinide reached saturation in serum), the sample was centrifuged at 8000 rpm for 10 minutes. 0.2 ml sample was drawn from the supernatant. This volume was immediately replaced using blank serum. The tubes were shook to mix the supernatant and sediment, and then re-placed on the mechanical circulator and incubated at 37 C. The fenretinide concentration in the supernatant was measured by a HPLC assay after extraction using acetonitrile.
A known quantity (0.9, 2.26, 3.97, 8.03, and 20.5 mg) of fenretinide was added to polypropylene tubes containing 15 mL fetal bovine serum. The samples were incubated at 37° C. under constant rotation using a rigged rotator and protection from light. At every 24 h till 7 days, the samples were centrifuged at 8000 rpm for 10 minutes and 200 μl of supernatant was withdrawn. Withdrawn serum sample was replaced with fresh serum sample, mixed properly, and incubated again under similar conditions. To the withdrawn sample (200 μl), 2 mL of acetonitrile was added, agitated overnight on a mechanical shaker with protection from light, passed through 0.45 μm PVDF filter units, and analyzed by HPLC.

A short description of data set [4]: Water solubility of fenretinide. In kind it is physicochemical.
For data set [5] the following is noted: cited from earlier work.

Take `CC1=C(/C=C/C(C)=C/C=C/C(C)=C/C(=O)Nc2ccc(O)cc2)C(C)(C)CCC1` [Fenretinide, 4-hydroxy(phenyl)retinamide]: the “solubility in simulated saliva” value in data set [1] is “insoluble”. Moreover, in data set [2], the “in vitro concentration inducing apoptosis” value was > 5 µM. In addition, the “in vitro concentration inducing cellular terminal differentiation” value in data set [2] is < 3 µM. Besides, the figures for the “time required to achieve equilibrium with bovine serum” value in data set [3] (0.9 mg fenretinide in 15 mL serum) and in data set [3] (8.03 mg fenretinide in 15 mL serum) were 7 days and 4 days, respectively. In data set [3] (fetal bovine serum, 37° C. (Example 3, FIG. 10A)), the “solubility of fenretinide in bovine serum” value came out at 21 µg/mL. For the same compound, the solubility at 6 days in data set [3] (plasma or biological fluid, thermodynamic from solid, fetal bovine serum, 37 C, after 6 days incubation (Example 2)) is 20.9 ± 1.02 µg/mL (≈ 53.5 µM). This compound also yielded a solubility in data set [3] (plasma or biological fluid, thermodynamic from solid, fetal bovine serum, 37° C. (Example 3, FIG. 10A)) of 21 ± 1 µg/mL (≈ 53.6 µM). The water solubility entry in data set [4] is “below HPLC detection limit”. For the same compound, the intrinsic aqueous solubility in data set [5] is 9.8 ng/mL.

The values above are taken from patent US10758619B2, “Controlled release mucoadhesive systems” (THE OHIO STATE UNIVERSITY, priority 2010, dated 2020).
